Results published in US4118561A, “7-(Substituted)-7H-pyrrolo[3,2-f]quinazoline-1,3-diamines” (priority 1977, dated 1978).
In brackets after ≈: the same amount, converted by molar mass. Where two headings read alike, the source gives them in different places.

Assays:
[1] = test system: P. cynomolgi; assay: Activity against P. cynomolgi infections in Rhesus monkeys; assay type: in vivo, P. cynomolgi (infected Rhesus monkeys); details: Plasmodium cynomolgi, in Macaca mulatta, 168 h
[2] = test system: Plasmodium berghei KBG 173; assay: Antimalarial blood schizonticidal test in mice; assay type: in vivo, Plasmodium berghei (infected ICR/HA Swiss mice); design: ΔMST (increase in mean survival time): unit: days; details: for ED100 / minimal effective dose: Plasmodium berghei, sc, single dose; for ED100: read-out: Lowest Dose Curing All Mice; for minimal effective dose: read-out: Min. Curing Dose; for Cure/Treat at Min. Curing Dose: at the Min. Curing Dose
Method in brief: (§1)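 ICR/HA Swiss mice (18–22 g) infected i.p. with 4 × 10^7 P. berghei KBG 173-parasitized cells; single subcutaneous dose in peanut oil at 72 h post-infection, graded dosages. Survival followed 60 days; 60-day survivors counted cured, deaths before day 6 counted toxic; mean survival time compared with untreated controls.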

[3] = Antimalarial blood schizonticidal test in mice; assay type: in vivo, Plasmodium berghei (infected ICR/HA Swiss mice); design: ΔMST (increase in mean survival time): unit: days; details: mouse, in vivo, sc, single dose, read-out: Highest Non-Lethal Dose
Method in brief: as §1

[4] = test system: K. pneumoniae 10031; assay: In vitro antibacterial activity (MIC), K. pneumoniae 10031; details: Klebsiella pneumoniae, 10031, 18 h
[5] = test system: N. catarrhalis 8193; assay: In vitro antibacterial activity (MIC), N. catarrhalis 8193; details: 18 h
[6] = test system: P. vulgaris 6896; assay: In vitro antibacterial activity (MIC), P. vulgaris 6896; details: Proteus vulgaris, 6896, 18 h
[7] = test system: E. coli 9637; assay: In vitro antibacterial activity (MIC), E. coli 9637; details: Escherichia coli, 9637, 18 h
[8] = test system: strains of P. berghei resistant to chloroquine, sulfones, cycloguanil, and pyrimethamine; assay: Activity against resistant strains of P. berghei in mice; assay type: in vivo, P. berghei (infected mice)
Description: Activity against strains of P. berghei resistant to chloroquine, sulfones, cycloguanil, and pyrimethamine, is shown by the testing of 7-(phenylmethyl)-7H-pyrrolo[3,2-f]quinazoline-1,3-diamine and 7-[(2,5-dimethylphenyl)methyl]-7H-pyrrolo[3,2-f]quinazoline-1,3-diamine in mice against such resistant strains.

[9] = test system: S. aureus Smith; assay: In vitro antibacterial activity (MIC), S. aureus Smith; details: Staphylococcus aureus, 18 h
[10] = test system: lymphocytic leukemia P-388; assay: Activity in mice against lymphocytic leukemia P-388; assay type: in vivo; details: Mus musculus, P388, ip, read-out: T/C
[11] = test system: S. paratyphi 11737; assay: In vitro antibacterial activity (MIC), S. paratyphi 11737; assay type: cell-based; details: Salmonella enterica, 18 h
[12] = test system: S. aureus 53-180; assay: In vitro antibacterial activity (MIC), S. aureus 53-180; details: Staphylococcus aureus, 53180, 18 h
[13] = test system: Proteus mirabilis 190; assay: In vivo antibacterial synergism (mouse), Proteus mirabilis 190; design: species or system Proteus mirabilis (infected mice, CD-1); details: for ED50: Proteus mirabilis, 190, po, 336 h, read-out: PD50 (agent alone); for PD50 SM/Cpd. (compound part): 0 hours, 20160 min
Protocol: (§2) The test agents are weighed, suspended in 0.5% aqueous carboxymethyl cellulose, homogenized (glass tissue grinder) and diluted according to the design of the experiment. Mice (male, 18±1 g., CD-1 strain) are pre-weighed, pooled, infected at random intraperitoneally with a 0.5 ml. standardized suspension (LD95 ±5%) of the bacterial organism in 5% gastric mucin and treated at random with single doses of the test agents either at the time of infection or six hours after infecting. The treated groups consist of ten mice per dosage level. Deaths are recorded daily for 14 days and the PD50 (mice are treated at time of infection) and CD50 (mice are treated six hours after infecting) values are calculated by the method of Reed and Muench [Amer. J. Hyg., 27, 493 (1938)].

[14] = test system: mice; assay: Acute toxicity in mice, i.p. single dose; assay type: in vivo, Charles River COBS CD Strain Albino mice, male
Protocol: (§3) Single doses of 7-(phenylmethyl)-7H-pyrrolo[3,2-f]-quinazoline-1,3-diamine (active moiety) were intraperitoneally administered in 0.5% carboxymethylcellulose at a constant dose volume of 10 ml./kg., to groups of 10 mice/dose level. (Charles River COBS CD Strain Albino mice, male, weight 21.0-25.29.) Daily observations were made on all mice for the duration of experiment (14 days). […] (95% confidence limits of 48.6-93.4) all deaths occurred 4-5 days post-drug-administration.
(§4) These effects lasted up to 6 days in the low dose animals and 14 days in those animals having received the highest dose. All mice alive on day 14 were sacrificed and necropsied.

[15] = Acute toxicity in mice, i.p. single dose; assay type: in vivo, Charles River COBS CD Strain Albino mice, male; details: mouse, in vivo, ip; mice, single dose, 14 days
Protocol: as §3, §4

[16] = test system: bacterial infections; assay: Synergism with sulfamethoxazole against bacterial infections in mice, oral; assay type: in vivo
Protocol: The invention also provides compounds which will potentiate the antibacterial effects of sulfa drugs.
as §2

[17] = Rhesus monkeys, oral, seven days, read-out: CD50 (the source's name)
[18] = infected mice, highest dose with no deaths for any reason
[19] = mice, p.o., with SM 1.56 mg. per kg.
[20] = mice, p.o., treated 0 hours after infecting

## Cc1ccc(C)c(Cn2ccc3c4c(N)nc(N)nc4ccc32)c1 [Example 23, 7-[(2,5-dimethylphenyl)methyl]-7H-pyrrolo[3,2-f]quinazoline-1,3-diamine]
[1]; [17]
  ED50: 1 mg/kg
[2]; 1440 h, s.c., 60-day survivors
  ED100: 40 mg/kg
  minimal effective dose: 10 mg/kg
[2]; s.c., 60-day survivors
  Cure/Treat at Min. Curing Dose: 3/5
[2]; s.c., dose 5 mg. per kg.
  ΔMST (increase in mean survival time): 7.9
[3]; this is the highest dose tested
  MTD: 640 mg/kg
[4]
  MIC: 1.95 mg/L (≈ 6.14 µM)
[5]
  MIC: 0.244 mg/L (≈ 0.769 µM)
[6]
  MIC: 250 mg/L (≈ 788 µM)
[7]
  MIC: 31.3 mg/L (≈ 98.6 µM)
[8]
  Activity against resistant strains: Activity
[9]
  MIC: 3.9 mg/L (≈ 12.3 µM)
[10]; mice, I.P., 10 mg/kg
  response vs control in vivo at 10 mg/kg: 142%
[11]
  MIC: 125 mg/L (≈ 394 µM)
[12]
  MIC: 0.976 mg/L (≈ 3.08 µM)

## Nc1nc(N)c2c(ccc3c2ccn3Cc2ccccc2)n1 [Example 2, 7-(Phenylmethyl)-7H-pyrrolo[3,2-f]quinazoline-1,3-diamine]
[1]; po, read-out: CD50
  ED50: 0.1 mg/kg
[2]; 1440 h, s.c., 60-day survivors
  ED100: 80 mg/kg
[2]; this is the lowest dose tested
  minimal effective dose: 20 mg/kg
[2]; s.c., 60-day survivors
  Cure/Treat at Min. Curing Dose: 2/5
[2]; s.c., dose 20 mg. per kg.
  ΔMST (increase in mean survival time): 10.9
[3]; [18]
  MTD: 160 mg/kg
[4]
  MIC: 1.95 mg/L (≈ 6.74 µM)
[5]
  MIC: 0.061 mg/L (≈ 0.211 µM)
[6]
  MIC: 7.81 mg/L (≈ 27 µM)
[7]
  MIC: 1.95 mg/L (≈ 6.74 µM)
[9]
  MIC: 1.95 mg/L (≈ 6.74 µM)
[10]
  response vs control in vivo at 10 mg/kg: 149%
[11]
  MIC: 1.95 mg/L (≈ 6.74 µM)
[13]
  ED50: 22.5 mg/kg
[13]; [19]
  PD50 SM/Cpd. (compound part): 7.78 mg. per kg.
[14]; animals having received the highest dose, i.p.
  duration of effects: 14 days
[14]; day 2, i.p. single dose
  signs observed on day 2 post-drug-administration: rough coats and decreased fecal elimination
[14]; low dose animals, i.p.
  duration of effects: up to 6 days
[14]; mice alive on day 14
  necropsy, macroscopic: Macroscopically, the tissues appeared normal
[14]; mice, i.p., single dose
  time of deaths post-drug-administration: 4 to 5 days
[14]; mice, i.p., single dose, 14 days
  LD50, 95% confidence limits: 48.6 to 93.4 mg/kg
[14]; within 1 hour after i.p. injection
  signs in all mice after i.p. injection: decreased spontaneous motor activity, bradypnea, ptosis, and stretching with indrawn sides in all mice
[15]
  LD50 at 336 h: 54.5 mg/kg
[12]
  MIC: 1.95 mg/L (≈ 6.74 µM)

## Nc1nc(N)c2c(ccc3c2ccn3Cc2ccc(F)cc2)n1 [Example 5, 7-[(4-fluorophenyl)methyl]-7H-pyrrolo[3,2-f]-quinazoline-1,3-diamine]
[2]; 1440 h, s.c., 60-day survivors
  ED100: 20 mg/kg
  minimal effective dose: 5 mg/kg
[2]; s.c., 60-day survivors
  Cure/Treat at Min. Curing Dose: 2/5
[2]; s.c., dose 2.5 mg. per kg.
  ΔMST (increase in mean survival time): 7.1
[3]; [18]
  MTD: 80 mg/kg
[4]
  MIC: 0.031 mg/L (≈ 0.101 µM)
[5]
  MIC: 0.0038 mg/L (≈ 0.0124 µM)
[6]
  MIC: 0.488 mg/L (≈ 1.59 µM)
[7]
  MIC: 0.122 mg/L (≈ 0.397 µM)
[16]
  synergistic effect with sulfamethoxazole: synergistic effect
[9]
  MIC: 0.244 mg/L (≈ 0.794 µM)
[11]
  MIC: 0.488 mg/L (≈ 1.59 µM)
[13]; [20]
  ED50: 9.8 mg/kg
[13]; [19]
  PD50 SM/Cpd. (compound part): 1.56 mg. per kg.
[12]
  MIC: 0.122 mg/L (≈ 0.397 µM)

## COc1ccc(Cn2ccc3c4c(N)nc(N)nc4ccc32)cc1 [Example 34, 7-[(4-methoxyphenyl)methyl]-7H-pyrrolo[3,2-f]quinazoline-1,3-diamine]
[1]; [17]
  ED50: 0.316 mg/kg
[2]; 1440 h, s.c., 60-day survivors
  ED100: 20 mg/kg
  minimal effective dose: 5 mg/kg
[2]; s.c., 60-day survivors
  Cure/Treat at Min. Curing Dose: 2/5
[2]; s.c., dose 5 mg. per kg.
  ΔMST (increase in mean survival time): 11.2
[3]; [18]
  MTD: 160 mg/kg
[4]
  MIC: 0.061 mg/L (≈ 0.191 µM)
[5]
  MIC: 0.0152 mg/L (≈ 0.0476 µM)
[6]
  MIC: 0.976 mg/L (≈ 3.06 µM)
[7]
  MIC: 0.488 mg/L (≈ 1.53 µM)
[9]
  MIC: 0.976 mg/L (≈ 3.06 µM)
[11]
  MIC: 0.976 mg/L (≈ 3.06 µM)
[12]
  MIC: 0.244 mg/L (≈ 0.764 µM)

## N#Cc1ccc(-n2ccc3c4c(N)nc(N)nc4ccc32)cc1 [Example 69, 7-(4-Cyanophenyl)-7H-pyrrolo[3,2-f]-quinazoline-1,3-diamine]
[2]; 1440 h, s.c., 60-day survivors
  ED100: 20 mg/kg
  minimal effective dose: 5 mg/kg
[2]; s.c., 60-day survivors
  Cure/Treat at Min. Curing Dose: 3/5
[2]; s.c., dose 2.5 mg. per kg.
  ΔMST (increase in mean survival time): 11
[3]; [18]
  MTD: 20 mg/kg
[4]
  MIC: 0.122 mg/L (≈ 0.406 µM)
[5]
  MIC: 0.031 mg/L (≈ 0.103 µM)
[6]
  MIC: 125 mg/L (≈ 416 µM)
[7]
  MIC: 0.976 mg/L (≈ 3.25 µM)
[16]
  synergistic effect with sulfamethoxazole: synergistic effect
[9]
  MIC: 0.976 mg/L (≈ 3.25 µM)
[11]
  MIC: 31.3 mg/L (≈ 104 µM)
[13]; [20]
  ED50: > 400 mg/kg
[13]; mice, p.o., with SM 0.39 mg. per kg.
  PD50 SM/Cpd. (compound part): > 12.5 mg. per kg.
[13]; mice, p.o., with SM 0.78 mg. per kg.
  PD50 SM/Cpd. (compound part): > 12.5 mg. per kg.
[13]; [19]
  PD50 SM/Cpd. (compound part): 9.39 mg. per kg.
[13]; mice, p.o., with SM 3.11 mg. per kg.
  PD50 SM/Cpd. (compound part): 2.55 mg. per kg.
[12]
  MIC: 0.488 mg/L (≈ 1.62 µM)
